Source: PubChem BioAssay AID1845213 (Molecular Pharmacology Branch, DTP, NCI, 2023)
pIC50: −log10 of the molar value. Where “and” joins values, the source holds several entries; their conditions need not be identical. Identical values can stand only once. Calls of active or inactive are those of the source. The calls were made as follows: active = viability on the fitted dose curve at most 10% of control; inactive = the rest.

Test system: NCI-H841 complex tumor spheroid viability
Test: Anticancer human tumor NCI-H841 cell line growth inhibition;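 as to pIC50: spheroids exposed to compounds for 7 days before readout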;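 as to viability, T/C: spheroids exposed to compounds for 7 days before readout; 100% = DMSO vehicle control wells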
Settings: for viability, T/C: stronger effect = lower value
Excerpt: Multicellular complex tumor spheroid response to DNA repair inhibitors in combination with DNA-damaging drugs
This study explores the anticancer activities of DNA-damaging drugs and inhibitors of DNA damage repair, both as single agents and in combinations. Complex tumor spheroids comprised of malignant cells, endothelial cells and mesenchymal stem cells served as an in vitro model for human solid tumors. This model system incorporates physiologically relevant features and patient-derived or established malignant cell lines with clinically relevant genetic alterations from many tumor types. Twenty-six patient-derived or established malignant cell lines were evaluated representing sarcoma, melanoma, small cell lung cancer (SCLC), non-small cell lung cancer (NSCLC), as well as bladder, ovarian and pancreatic cancers. The concentration ranges selected for each drug and investigational agent were based upon clinically achievable concentrations if the clinical Cmax of the agent was known.
Compounds. The drugs and compounds olaparib (NSC753686), talazoparib (NSC767125), berzosertib (NSC777718), elimusertib (NSC800525), nedisertib (NSC802822), VX-984 (NSC792969), AZD-1390 (NSC803789), temozolomide (NSC362856), topotecan (NSC609699), trabectedin (NSC813783), staurosporine (NSC755774), and gemcitabine (NSC613327) were obtained from the National Cancer Institute (NCI) Developmental Therapeutics Program Chemical Repository. The FDA-approved anticancer drug set is available from the Developmental Therapeutics Program at https://dtp.cancer.gov/organization/dscb/obtaining/available_plates.htm. […] The stock solutions were prepared in dimethyl sulfoxide (DMSO, Sigma-Aldrich, St. Louis, MO, cat. D2650) at 400-fold the tested concentration and stored at -70 degrees C. Prior to their use, the stock solutions were diluted in fresh medium and the final DMSO concentration in the assay was 0.25% (v/v). All drugs and investigational agents were tested over a range starting from a high concentration at or near the clinical Cmax and decreasing in half-log increments. If the clinical Cmax for an agent had not been determined, the highest concentration tested was 10 microM.
Cell Lines. The patient-derived cancer cell (PDC) lines: 156681-154-R-J1-PDC, 283228-195-R-J1-PDC, 287954-098-R-J1-PDC, 292921-168-R-J2-PDC, 349418-098-R-PDC, 425362-245-T-J1-PDC, 556581-035-R-J1-PDC, and BL0293-F563-PDC were received from the NCI Patient-Derived Models Repository (PDMR, https://pdmr.cancer.gov). The established cell lines HS-SY-2 (RRID:CVCL_8719), MPNST, and SYO-1 (RRID:CVCL_7146) were obtained from the Sloan Kettering Institute. The alveolar soft parts sarcoma cell line ASPS-1 (RRID:CVCL_S738) was established at the NCI and grown from internal seed stocks. The following established cell lines were purchased from the American Type Culture Collection (ATCC, Manassas, VA): G-401 (ATCC, cat. CRL-1441, RRID:CVCL_0270), SW982 (ATCC, cat. HTB-93, RRID:CVCL_1734), VA-ES-BJ (ATCC, cat. CRL-2138, RRID:CVCL_1785), NCI-H719 (ATCC, cat. CRL-5837, RRID:CVCL_1582), NCI-H196 (ATCC, cat. CRL-5823, RRID:CVCL_1509), NCI-H841 (ATCC, cat. CRL-5845, RRID:CVCL_1595), NCI-H1618 (ATCC, cat. CRL-5879, RRID:CVCL_1480), NCI-H1876 (ATCC, cat. CRL-5902, RRID:CVCL_1503), DMS 114 (ATCC, cat. CRL-2066; RRID:CVCL_1174), NCI-H211 (ATCC, cat. CRL-5824; RRID:CVCL_1529), and SW 1271 (ATCC, cat. CRL-2177, RRID:CVCL_1716). The small cell lung cancer cell line COR-L88 was purchased from Sigma-Aldrich (cat. 92031917-1VL, RRID:CVCL_1141). The non-small cell lung cancer cell lines NCI-H226 (RRID:CVCL_1544) and NCI-H322M (RRID:CVCL_1557) were established at the NCI and grown from internal seed stocks. Pooled donor human umbilical vein endothelial cells (HUVEC, Lonza, cat. CC-2519) and human mesenchymal stem cells (hMSC, Lonza, cat. PT-2501) were purchased from Lonza (Walkersville, MD).
Cell Culture. All cells were maintained in an incubator at 37 degrees C and 5% CO2 with 95% humidity. […]

[1] = compound alone, run of 11/07/2019
[2] = compound alone, run of 12/16/2019

SMILES: CC(C)n1c(=O)n(C)c2cnc3cc(F)c(-c4ccc(OCCCN5CCCCC5)nc4)cc3c21
- viability, T/C (compound 0.0316 µM): 96.6% and 93.7% and 101%
- viability, T/C (compound 0.1 µM): 94.6% and 91.3% and 99.4%
- viability, T/C (compound 0.316 µM): 93.6% and 95.8% and 99.8%
- viability, T/C (compound 1 µM): 94.1% and 91.1% and 99.3%
- viability, T/C (compound 3.16 µM): 91.6% and 80.8% and 97%
- viability, T/C (compound 10 µM): 88.3% and 76.8% and 90.8%
- pIC50 (curve of compound): < 5.00

SMILES: CC1COCCN1c1cc(-c2ccnn2C)c2ccnc(-c3ccn[nH]3)c2n1 (stereo not given)
- viability, T/C (compound 0.0316 µM): 77.2% and 68.7% and 83.9%
- viability, T/C (compound 0.1 µM): 16.2% and 27.3% and 39.8%
- viability, T/C (compound 0.316 µM): 4.34% and 9.62% and 7.72%
- viability, T/C (compound 1 µM): 1.61% and 3.17% and 2.67%
- viability, T/C (compound 3.16 µM): 1.48% and 2.14% and 1.89%
- viability, T/C (compound 10 µM): 1.73% and 2.18% and 2.49%
- pIC50 (curve of compound): 7.28 and 7.27 and 7.12

SMILES: CC[C@@]1(O)C(=O)OCc2c1cc1n(c2=O)Cc2cc3c(CN(C)C)c(O)ccc3nc2-1
- viability, T/C (compound 0.003 µM): 98.1% [middle of 10 runs]
- viability, T/C (compound 0.03 µM): 2.24% [middle of 10 runs]
- viability, T/C (compound 0.0949 µM): 1.86% [middle of 10 runs]
- viability, T/C (compound 0.3 µM): 1.86% [middle of 10 runs]
- IC50 [1]: 12 nM [middle of 5 runs]
- IC50 [2]: 15.8 nM [middle of 4 runs]

SMILES: CNCc1ccc(-c2cc(-c3nc(-c4ccc(S(=O)(=O)C(C)C)cc4)cnc3N)on2)cc1
- viability, T/C (compound 0.00949 µM): 100% (2×) and 97.3%
- viability, T/C (compound 0.03 µM): 94.6% and 98.1% and 99.8%
- viability, T/C (compound 0.0949 µM): 28.9% and 81.8% and 95.3%
- viability, T/C (compound 0.3 µM): 25.2% and 24% and 63.7%
- viability, T/C (compound 0.949 µM): 6.79% and 3.39% and 9.67%
- viability, T/C (compound 3 µM): 3.17% and 1.05% and 2.03%
- pIC50 (curve of compound): 7.18 and 6.75 and 6.40

SMILES: COc1cc(C)[nH]c(=O)c1CN1CCc2c(Cl)cc(C(OC)C3COC3)c(Cl)c2C1=O (stereo not given)
- viability, T/C (compound 0.0316 µM): 91% and 78.5% and 86.2%
- outcome (compound 0.1 µM): inactive
- viability, T/C (compound 0.1 µM): 73.6% and 74.6%
- outcome (compound 0.316 µM): inactive
- viability, T/C (compound 0.316 µM): 73.2% and 67.7%
- viability, T/C (compound 1 µM): 65% and 42.6% and 61.8%
- viability, T/C (compound 3.16 µM): 60.1% and 38.4% and 55.5%
- viability, T/C (compound 10 µM): 54.7% and 35.1% and 51.2%

SMILES: COc1cc2c(cc1O)CCNC21CSC2c3c(OC(C)=O)c(C)c4c(c3C(COC1=O)N1C(O)C3Cc5cc(C)c(OC)c(O)c5C(C21)N3C)OCO4 (stereo not given)
- viability, T/C (compound 30 pM): 102% [middle of 10 runs]
- viability, T/C (compound 94.9 pM): 99.5% [middle of 10 runs]
- viability, T/C (compound 0.000949 µM): 3.1% [middle of 10 runs]
- viability, T/C (compound 0.003 µM): 0.11% [middle of 4 runs]
- IC50 [2]: 0.258 nM [middle of 10 runs]

SMILES: COc1ccc([C@@H](O)c2cc(-c3ncnc4cc(N5CCOCC5)ccc34)c(F)cc2Cl)nn1
- viability, T/C (compound 0.0316 µM): 97.7% and 102% and 99.6%
- viability, T/C (compound 0.1 µM): 101% and 104% and 99.6%
- viability, T/C (compound 0.316 µM): 95.7% and 99% and 96.2%
- outcome (compound 1 µM): inactive
- viability, T/C (compound 1 µM): 93.4% and 89.9%
- viability, T/C (compound 3.16 µM): 67% and 34.4% and 73.9%
- viability, T/C (compound 10 µM): 13.7% and 8.86% and 17%
- pIC50 (curve of compound): 5.34 and 5.67 and 5.29

SMILES: Cc1cc(C)c(CNC(=O)c2cc(-c3ccc(CN4CCOCC4)cc3)cc3c2cnn3C2CCCC2)c(=O)[nH]1
- viability, T/C (compound 0.0316 µM): 101% and 99.7% and 102%
- viability, T/C (compound 0.1 µM): 103% and 98.5% and 102%
- viability, T/C (compound 0.316 µM): 99.7% and 106% and 98.5%
- viability, T/C (compound 1 µM): 99.8% and 93.7% and 97.1%
- viability, T/C (compound 3.16 µM): 87.3% and 84.7% and 80.8%
- viability, T/C (compound 10 µM): 65.2% and 43.9% and 50.7%
- pIC50 (curve of compound): < 5.00 and 5.07

SMILES: Cc1sc2c(c1C)C(c1ccc(Cl)cc1)=NC(CC(=O)Nc1ccc(O)cc1)c1nnc(C)n1-2 (stereo not given)
- viability, T/C (compound 0.00949 µM): 104% and 97.9% and 102%
- viability, T/C (compound 0.03 µM): 110% and 95.7% and 101%
- viability, T/C (compound 0.0949 µM): 87.8% and 91.9% and 91.2%
- viability, T/C (compound 0.3 µM): 65.4% and 75.9% and 82.7%
- viability, T/C (compound 0.949 µM): 25.2% and 33.3% and 44%
- viability, T/C (compound 3 µM): 8.1% and 7.29% and 14.4%
- pIC50 (curve of compound): 6.34 and 6.22 and 6.09

SMILES: Cn1ncnc1[C@H]1c2n[nH]c(=O)c3cc(F)cc(c23)N[C@@H]1c1ccc(F)cc1
- viability, T/C (compound 0.00949 µM): 90.1% and 29.7% and 97.4%
- viability, T/C (compound 0.03 µM): 85.4% and 30.6% and 90.1%
- viability, T/C (compound 0.0949 µM): 80.3% and 9.88% and 89.6%
- viability, T/C (compound 0.3 µM): 55.7% and 62.9% and 83.3%
- viability, T/C (compound 3 µM): 7.92% and 2.5% and 1.44%

SMILES: Cn1nnc2c(C(N)=O)ncn2c1=O
- viability, T/C (compound 1 µM): 101% [middle of 9 runs]
- viability, T/C (compound 3.16 µM): 101% [middle of 10 runs]
- viability, T/C (compound 10 µM): 101% [middle of 10 runs]
- pIC50 [1]: < 4.00 and 4.76

SMILES: O=C(c1cc(Cc2n[nH]c(=O)c3ccccc23)ccc1F)N1CCN(C(=O)C2CC2)CC1
- viability, T/C (compound 0.0949 µM): 101% and 95.3% and 103%
- outcome (compound 0.3 µM): inactive
- viability, T/C (compound 0.3 µM): 93.6% and 103%
- viability, T/C (compound 0.949 µM): 94.8% and 89.4% and 99.4%
- viability, T/C (compound 3 µM): 43.4% and 81.5% and 88.2%
- viability, T/C (compound 30 µM): 8.7% and 7.95% and 1.92%
- pIC50 (curve of compound): 5.59 and 5.21 and 5.29

SMILES: [2H]c1nc(C)nc([2H])c1-c1cc(NC[C@@H](C)c2cccc3c(C(=O)NC)ccnc23)ncn1
- viability, T/C (compound 0.0316 µM): 100% and 97.5% and 102%
- viability, T/C (compound 0.1 µM): 99.4% and 97.2% and 100%
- viability, T/C (compound 0.316 µM): 98.4% and 102% and 98.1%
- viability, T/C (compound 1 µM): 98.7% and 99.9% and 96.8%
- viability, T/C (compound 3.16 µM): 98.2% and 103% and 95.4%
- viability, T/C (compound 10 µM): 92.6% and 102% and 96.8%
- pIC50 (curve of compound): < 5.00
